# Measured values published in US20230265483A1, “METHODS FOR TESTING ANDEXANET POTENCY” (Alexion Pharmaceuticals, Inc., priority 2020, published 2023).
# Key:
# bovine fXa (BFXa) = target: T1, bovine fXa (BFXa) (Bos taurus, UniProt P00743); assay: Inhibition of bovine fXa by betrixaban; type: biochemical; conditions: in words
# T1 construct: purchased Hyphen BioMed (France) BE1010/BE101K
# BFXa = target: T2, BFXa (Bos taurus, UniProt P00743); assay: Direct potency assay with BFXa/betrixaban mixture; type: biochemical, bovine; conditions: BFXa (1×)/betrixaban (1×) vs HFXa (1×)/betrixaban (1×), no andexanet
# T2 construct: purchased Hyphen BioMed (France) BE1010/BE101K
# T2 sequence (P00743 234-492 limits assumed): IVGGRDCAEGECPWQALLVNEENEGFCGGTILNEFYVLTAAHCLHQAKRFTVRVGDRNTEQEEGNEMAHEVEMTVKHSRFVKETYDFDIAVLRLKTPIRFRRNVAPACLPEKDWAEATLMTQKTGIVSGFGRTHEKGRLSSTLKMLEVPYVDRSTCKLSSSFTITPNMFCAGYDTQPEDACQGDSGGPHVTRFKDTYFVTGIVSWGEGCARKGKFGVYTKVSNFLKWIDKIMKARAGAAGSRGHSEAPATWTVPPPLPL
# T2 sequence (P00743 41-180 partner limits assumed): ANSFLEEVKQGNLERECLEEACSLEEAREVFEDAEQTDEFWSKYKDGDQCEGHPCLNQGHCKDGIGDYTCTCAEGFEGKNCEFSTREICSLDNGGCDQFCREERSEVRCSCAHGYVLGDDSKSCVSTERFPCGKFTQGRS
# Description: The stock solutions for HFXa, BFXa and betrixaban were first prepared separately. FXa/betrixaban mixture was prepared by mixing different volumes of the stock solutions of FXa and betrixban, resulting in HFXa/betrixaban or BFXa/betrixaban. The FXa/betrixaban mixture (50 μL) was added to the reaction mixture as described in the direct potency assay. The HFXa (1×)/betrixaban (1×) mixture (O) was used as a control.
# Preparation of fXa and Betrixaban (fXa Inhibitor) • a) Dilute the fXa to 50 μg/mL then further dilute to 1.0 μg/mL in assay buffer. • b) Dilute fXa inhibitor (226 μg/mL betrixaban stock) to 40 ng/mL in assay buffer as described in the table below. • c) Add equal volumes of diluted fXa and fXa inhibitor (betrixaban) into an appropriate container by combining 6 mL of FXa at 1.0 μg/mL and 6 mL of fXa inhibitor at 40 ng/mL. Mix well. • 4. Preparation of fXa and fXa Inhibitor Controls • a) Prepare the fXa control by mixing 100 μL of diluted fXa with 300 μL of assay buffer. • b) Prepare fXa inhibitor (betrixaban) control by mixing 200 μL of the fXa inhibitor mixture and 200 μL assay buffer. • 5. Transfer 50 μL/well of reference standard (RS), assay control (CTRL) and test samples (TS) to the assay plate. • 6. […] Read the microplate at 405 nm as the test wavelength and 490 nm as the reference wavelength. • 14. […]
# T1 sequence (P00743 234-492 limits assumed): as the sequence (P00743 234-492 limits assumed) above
# T1 sequence (P00743 41-180 partner limits assumed): as the sequence (P00743 41-180 partner limits assumed) above
compound,measurement,setting,value
COc1ccc(NC(=O)c2ccc(C(=N)N(C)C)cc2)c(C(=O)Nc2ccc(Cl)cn2)c1 [betrixaban],potency of inhibition of bovine fXa compared with human fXa,bovine fXa (BFXa),less potent
same,inhibition of BFXa activity (background in absence of andexanet),BFXa,less inhibition of BFXa activity
